Experimental data from ChEMBL document CHEMBL4419165, “Fibcd1 for the prevention and treatment of diseases” (2014).
Calls of active or inactive are those of the source. No cut-off for these calls is given here.

Tests used:
[1] = biological target: T1, Fibrinogen C domain-containing protein 1 (Homo sapiens) (UniProt Q8N539); assay: Binding affinity to V5-His tagged FIBCD1 ecto-domain (54 to 461 residues) (unknown origin) assessed as reduction in binding between FIBCD1 and acetylated BSA by ELISA relative to control
T1 sequence (whole entry): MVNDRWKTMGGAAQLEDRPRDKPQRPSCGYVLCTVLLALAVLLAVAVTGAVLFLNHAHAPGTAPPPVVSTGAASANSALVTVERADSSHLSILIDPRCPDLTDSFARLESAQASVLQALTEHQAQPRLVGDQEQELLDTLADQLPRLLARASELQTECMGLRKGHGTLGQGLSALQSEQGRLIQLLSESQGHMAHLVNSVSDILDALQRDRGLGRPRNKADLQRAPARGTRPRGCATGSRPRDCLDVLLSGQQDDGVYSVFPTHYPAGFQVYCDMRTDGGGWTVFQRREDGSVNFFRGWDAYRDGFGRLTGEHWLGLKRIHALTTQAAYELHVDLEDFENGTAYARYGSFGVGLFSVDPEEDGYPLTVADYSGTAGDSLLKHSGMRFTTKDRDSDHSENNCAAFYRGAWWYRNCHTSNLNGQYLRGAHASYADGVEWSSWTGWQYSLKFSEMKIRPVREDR

[2] = biological target: T1, Fibrinogen C domain-containing protein 1 (Homo sapiens); assay: Binding affinity to V5-His tagged FIBCD1 ecto-domain (54 to 461 residues) (unknown origin) expressed in HEK293 cells assessed as reduction in binding between FIBCD1 and acetylated BSA by ELISA; assay type: cell-based
[3] = biological target: T1, Fibrinogen C domain-containing protein 1 (Homo sapiens); assay: Binding affinity to V5-His tagged FIBCD1 ecto-domain (54 to 461 residues) (unknown origin) assessed as reduction in binding between FIBCD1 and acetylated BSA at 50 mM by ELISA relative to control
[4] = biological target: T1, Fibrinogen C domain-containing protein 1 (Homo sapiens); assay: Binding affinity to V5-His tagged FIBCD1 ecto-domain (54 to 461 residues) (unknown origin) expressed in CHO cells assessed as reduction in endocytosis of [125I]Acetylated BSA by measuring degraded acetylated BSA level measured up to 4 hrs; assay type: cell-based

Row | SMILES | Ratio [1] | I50 [2] | inhibition [3] [%] | Activity [4]
1 | CC(=O)N[C@@H]1[C@@H](O)[C@@H](O)[C@@H](CO)O[C@@H]1O | 0.4 | – | – | –
2 | N[C@H]1[C@H]([C@H](O)[C@H](O)CO)OC(O)(C(=O)O)C[C@@H]1O (stereo not given in full) | 1 | – | – | –
3 | O=C[C@H](O)[C@@H](O)[C@@H](O)[C@H](O)CO | – | inactive | < 50 | –
4 | CC(=O)O | 0.7 | – | – | –
5 | CCCC(=O)O | – | inactive | < 50 | –
6 | CCN(CC)CCCC(C)Nc1ccnc2cc(Cl)ccc12 (stereo not given) | – | – | – | Active
7 | CC(=O)OCC[N+](C)(C)C | 0.2 | – | – | –
8 | OC[C@H]1OC(O)[C@H](O)[C@@H](O)[C@@H]1O (stereo not given in full) | – | inactive | < 50 | –
9 | CCC(=O)O | – | inactive | < 50 | –
10 | OC[C@H]1OC(O)[C@@H](O)[C@@H](O)[C@@H]1O (stereo not given in full) | – | inactive | < 50 | –
